From ChEMBL document CHEMBL5576120, “Discovery and In Vivo Efficacy of AZ-PRMT5i-1, a Novel PRMT5 Inhibitor with High MTA Cooperativity” (J Med Chem, 2024)
Converted amounts (≈) assume the structure as drawn.

Key:
physchem [1] = details: phosphate buffer, pH 7.4
physchem [2] = details: buffer, pH 7.4
Description: Lipophilicity, logD of compound at pH 7.4

[3] = Intrinsic clearance in rat hepatocytes assessed per million cells; assay type: ADME, cell-based, Hepatocyte; details: read-out: CLH
in vitro = details: human, Caco-2
Description: Apparent permeability across apical to basal side of human Caco-2 cells at 10 uM

PRMT5/MEP50 complex [4] = target: T1, PRMT5/MEP50 complex (Homo sapiens, UniProt O14744); assay: biochemical
Description: Inhibition of PRMT5 (1 to 637 residues)/MEP504 (2 to 342 residues)(unknown origin) expressed in baculovirus infected Sf21 insect cells using histone H4/SAM as substrate incubated for 5 hrs in presence of MTA by MTase Glo assay

[5] = target: Protein arginine N-methyltransferase 5 (Homo sapiens, UniProt O14744)
Description: Inhibition of PRMT5 in human HCT-116 cells with MTAP KO assessed as decrease in SMDA level incubated for 48 hrs by immunofluorescence analysis

HCT-116 = assay: Cooperativity fold, ratio of IC50 for PRMT5 in human HCT-116 cells expressing wild-type MTAP assessed as decrease in SMDA level to IC50 for PRMT5 in human HCT-116 cells with MTAP KO assessed as decrease in SMDA level; assay type: cell-based
[6] = Volume of distribution at steady state in Wistar Han rat at 1 mg/kg, po or 0.5 mg/kg, iv; assay type: ADME, organism-based; details: in vivo
[7] = Oral bioavailability at steady state in Wistar Han rat at 1 mg/kg; assay type: ADME, organism-based; details: in vivo
[8] = Half life in Wistar Han rat at 1 mg/kg, po or 0.5 mg/kg, iv; assay type: ADME, organism-based; details: in vivo
Lu-99 cell line [9] = assay: Antitumor activity against human Lu-99 cells xenografted in nude mouse at 100 mg/kg, po bid measured after 21 days relative to control; assay type: functional; details: Lu-99, 504 h, time 21 day, read-out: TGI
[10] = Antitumor activity against human PDX GA2254 cells xenografted in Balb/c nude mouse assessed as inhibition of SDMA level at 10 mg/kg, po bid measured for 21 days relative to control; assay type: functional; details: PDX GA2254, 504 h, time 21 day, read-out: TGI
[11] = Volume of distribution at steady state in CD-1 mouse at 1 mg/kg, po or 0.5 mg/kg, iv; assay type: ADME, organism-based; details: in vivo
Translocator protein = Translocator protein (Homo sapiens, UniProt P30536); assay: Inhibition of human TSPO
Lu-99 cell line [12] = assay: Antitumor activity against human Lu-99 cells xenografted in nude mouse assessed as inhibition of SDMA level administered orally twice a day measured for 21 days; assay type: functional, cell-based; details: dose 1-10 mg/kg, route po, time 21.0 day
Lu-99 cell line [13] = assay: Antiproliferative activity against human Lu-99 cells incubated for 7 days; assay type: functional, cell-based; details: Lu-99, 168 h
[14] = Antitumor activity against human PDX GA2254 cells xenografted in Balb/c nude mouse assessed as tumor regression at 50 mg/kg, po bid measured for 21 days relative to control; assay type: functional; details: time 21 day
[15] = Oral bioavailability in CD-1 mouse at 1 mg/kg; assay type: ADME, organism-based; details: in vivo
[16] = Intrinsic clearance in human hepatocytes assessed per million cells; assay type: ADME, cell-based, Hepatocyte; details: read-out: CLH
Lu-99 cell line [17] = assay: Antitumor activity against human Lu-99 cells xenografted in nude mouse assessed as inhibition of SDMA level at 100 mg/kg, po bid measured after 21 days relative to control; assay type: functional; details: Lu-99, 504 h, time 21 day
[18] = Antitumor activity against human PDX GA2254 cells xenografted in Balb/c nude mouse assessed as inhibition of SDMA level at 50 mg/kg, po bid measured for 21 days relative to control; assay type: functional; details: PDX GA2254, 504 h, time 21 day, read-out: TGI
[19] = Antitumor activity against human PDX GA2254 cells xenografted in Balb/c nude mouse assessed as inhibition of SDMA level at 1 mg/kg, po bid measured for 21 days relative to control; assay type: functional; details: PDX GA2254, 504 h, time 21 day, read-out: TGI
[20] = Antitumor activity against human PDX GA2254 cells xenografted in Balb/c nude mouse at 10 mg/kg, po bid measured for 21 days relative to control; assay type: functional; details: PDX GA2254, 504 h, time 21 day, read-out: TGI
Lu-99 cell line [21] = assay: Antitumor activity against human Lu-99 cells xenografted in nude mouse assessed as tumor growth inhibition administered orally twice a day measured for 21 days; assay type: functional, cell-based; details: dose 1-10 mg/kg, route po, time 21.0 day
[22] = Toxicity in nude mouse xenografted with human Lu-99 cells assessed as body weight loss upto 100 mg/kg, po bid measured for 21 days; assay type: organism-based; details: in vivo, 504 h, time 21 day
[23] = Half life in CD-1 mouse at 1 mg/kg, po or 0.5 mg/kg, iv; assay type: ADME, organism-based; details: in vivo
PRMT5/MEP50 complex [24] = target: T1, PRMT5/MEP50 complex; assay: biochemical; remark: listed apart in the source
Description: Inhibition of PRMT5 (1 to 637 residues)/MEP504 (2 to 342 residues)(unknown origin) expressed in baculovirus infected Sf21 insect cells using histone H4/SAM as substrate incubated for 5 hrs by MTase Glo assay

[25] = Unbound protein binding in rat plasma by equilibrium dialysis; assay type: ADME, cell-free

T1 sequence (O14744 whole entry): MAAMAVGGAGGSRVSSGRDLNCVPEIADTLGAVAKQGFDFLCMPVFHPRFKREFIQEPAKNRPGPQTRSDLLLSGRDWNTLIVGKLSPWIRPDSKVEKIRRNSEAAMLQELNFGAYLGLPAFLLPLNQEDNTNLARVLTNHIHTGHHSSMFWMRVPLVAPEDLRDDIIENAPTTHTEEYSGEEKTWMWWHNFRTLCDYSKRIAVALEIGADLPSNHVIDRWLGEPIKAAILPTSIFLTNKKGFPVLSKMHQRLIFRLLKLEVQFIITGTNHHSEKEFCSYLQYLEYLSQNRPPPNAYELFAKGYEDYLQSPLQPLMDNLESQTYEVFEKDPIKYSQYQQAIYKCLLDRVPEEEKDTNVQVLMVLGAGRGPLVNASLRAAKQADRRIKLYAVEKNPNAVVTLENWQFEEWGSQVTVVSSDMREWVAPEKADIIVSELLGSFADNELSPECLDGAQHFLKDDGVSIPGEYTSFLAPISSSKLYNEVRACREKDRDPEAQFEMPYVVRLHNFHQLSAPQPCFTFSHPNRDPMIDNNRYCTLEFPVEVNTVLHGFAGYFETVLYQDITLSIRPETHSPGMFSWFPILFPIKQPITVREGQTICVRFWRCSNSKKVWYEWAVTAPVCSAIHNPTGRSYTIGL
T1 sequence (Q9BQA1 whole entry, further chain): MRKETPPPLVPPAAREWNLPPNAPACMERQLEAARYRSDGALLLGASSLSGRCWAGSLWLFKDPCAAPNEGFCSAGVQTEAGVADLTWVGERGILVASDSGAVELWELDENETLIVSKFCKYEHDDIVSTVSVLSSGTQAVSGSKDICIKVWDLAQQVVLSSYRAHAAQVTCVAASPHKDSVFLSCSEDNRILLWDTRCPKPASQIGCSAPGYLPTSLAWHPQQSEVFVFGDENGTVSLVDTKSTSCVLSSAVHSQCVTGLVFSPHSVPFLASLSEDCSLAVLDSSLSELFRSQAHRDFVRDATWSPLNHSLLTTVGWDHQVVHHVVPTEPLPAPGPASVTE
Chain of Protein arginine N-methyltransferase 5 (O14744 whole entry): as the sequence (O14744 whole entry) above
Chain of Translocator protein (P30536 whole entry): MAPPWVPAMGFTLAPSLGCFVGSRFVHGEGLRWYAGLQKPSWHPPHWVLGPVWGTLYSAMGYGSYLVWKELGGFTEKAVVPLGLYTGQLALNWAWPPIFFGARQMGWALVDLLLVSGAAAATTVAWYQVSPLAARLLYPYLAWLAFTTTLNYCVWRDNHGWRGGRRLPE

| Compound | logD (physchem [2]) | hepatocyte CLint [3] | Papp A→B at 10 µM (in vitro) | IC50 [5] | also measured |
| --- | --- | --- | --- | --- | --- |
| Nc1cc(C(F)F)c2[nH]c(CN3C(=O)c4cc(F)ccc4[C@]34CCN(Cc3ccc(F)cc3)C4=O)cc2n1 | 2.9 | 15 µL/min/1e6 cells | 56 ×10⁻⁶ cm/s | – | solubility at 24 h (physchem [1]): 86 µM (≈ 45 µg/mL) |
| O=C(NCc1ccc(F)cc1)C1c2ccccc2C(=O)N1Cc1cc2ncccc2[nH]1 (configuration not stated) | 3 | 70 µL/min/1e6 cells | – | – | – |
| O=C1c2cc(F)ccc2[C@]2(CCN(Cc3ccc(F)cc3)C2=O)N1Cc1cc2cnccc2[nH]1 | 2.4 | 3 µL/min/1e6 cells | – | > 30000 nM | IC50 (PRMT5/MEP50 complex [4]): 970 nM |
| COc1cc(N)nc2cc(CN3C(=O)c4cc(F)ccc4[C@]34CCN(Cc3ccc(F)cc3)C4=O)[nH]c12 | 1.8 | 7 µL/min/1e6 cells | 1.4 ×10⁻⁶ cm/s | 4 nM | solubility at 24 h (physchem [1]): 610 µM (≈ 307 µg/mL); Ratio IC50 (HCT-116): 7.2 |
| CNC(=N)Nc1ncc(CN2C(=O)c3cc(F)ccc3C2C(=O)NCc2ccc(F)cc2)s1 (configuration not stated) | 2.7 | 19 µL/min/1e6 cells | 14 ×10⁻⁶ cm/s | – | Vdss [6]: 2.6 L/kg; bioavailability [7]: 20%; solubility at 24 h (physchem [1]): 8 µM (≈ 3.76 µg/mL); half-life [8]: 42.6 min |
| Nc1nc2cc(CN3C(=O)c4cc(F)ccc4[C@]34CCN(Cc3ccc(F)cc3)C4=O)[nH]c2cc1F | 2.8 | < 5 µL/min/1e6 cells | 48 ×10⁻⁶ cm/s | – | inhibition in vivo at 100 mg/kg (Lu-99 cell line [9]): 71%; inhibition in vivo at 10 mg/kg [10]: 93%; Vdss [11]: 2.1 L/kg; Ki (Translocator protein): 610 nM; inhibition (Lu-99 cell line [12]): Dose-Dependent Effect; Vdss [6]: 2.4 L/kg; IC50 (Lu-99 cell line [13]): 124 nM; Activity [14]: 50%; bioavailability [15]: 101%; hepatocyte CLint [16]: < 1 µL/min/1e6 cells; inhibition in vivo at 100 mg/kg (Lu-99 cell line [17]): 95%; bioavailability [7]: 35%; inhibition in vivo at 50 mg/kg [18]: 97%; inhibition in vivo at 1 mg/kg [19]: 51%; solubility at 24 h (physchem [1]): 8 µM (≈ 3.93 µg/mL); inhibition in vivo at 10 mg/kg [20]: 33%; half-life [8]: 108 min; inhibition (Lu-99 cell line [21]): Dose-Dependent Effect; Activity [22]: Non-Toxic; half-life [23]: 204 min |
| O=C1c2cc(F)ccc2[C@]2(CCN(Cc3ccc(F)cc3)C2=O)N1Cc1cc2ccncc2[nH]1 | 2.8 | 6 µL/min/1e6 cells | – | 6400 nM | IC50 (PRMT5/MEP50 complex [4]): 370 nM; Ratio IC50 (HCT-116): > 5 |
| CN(Cc1ccc(F)cc1)C(=O)C1c2ccccc2C(=O)N1Cc1cnc(NC(=N)N)s1 (configuration not stated) | 2 | 84 µL/min/1e6 cells | – | – | – |
| Nc1ccc2[nH]c(CN3C(=O)c4cc(F)ccc4[C@]34CCN(Cc3ccc(F)cc3)C4=O)nc2n1 | – | 5 µL/min/1e6 cells | – | 1300 nM | hepatocyte CLint [16]: < 1 µL/min/1e6 cells |
| N=C(N)Nc1cc(CN2C(=O)c3ccccc3C2C(=O)NCc2ccc(F)cc2)ccn1 (configuration not stated) | 0.9 | 17 µL/min/1e6 cells | – | > 30000 nM | IC50 (PRMT5/MEP50 complex [24]): 27 µM; IC50 (PRMT5/MEP50 complex [4]): 2950 nM |
| COc1ccc2c(c1)C(=O)N(Cc1cnc(NC(=N)N)s1)C2C(=O)NCc1ccc(F)cc1 (configuration not stated) | 2.3 | 22 µL/min/1e6 cells | – | 380 nM | IC50 (PRMT5/MEP50 complex [24]): 0.051 µM; IC50 (PRMT5/MEP50 complex [4]): 12 nM; Ratio IC50 (HCT-116): 7.7 |
| O=C1c2cc(F)ccc2[C@]2(CCN(Cc3ccc(F)cc3)C2=O)N1Cc1cc2cccnc2[nH]1 | 3.4 | 193 µL/min/1e6 cells | 29 ×10⁻⁶ cm/s | – | – |
| Nc1ccc2[nH]c(CN3C(=O)c4cc(F)ccc4[C@]34CCN(Cc3ccc(F)cc3)C4=O)cc2n1 | 2.2 | 13 µL/min/1e6 cells | 2.7 ×10⁻⁶ cm/s | – | Vdss [11]: 2.7 L/kg; Vdss [6]: 7.8 L/kg; bioavailability [15]: 3%; hepatocyte CLint [16]: < 1 µL/min/1e6 cells; solubility at 24 h (physchem [1]): 106 µM (≈ 50.2 µg/mL); half-life [8]: 30 min; half-life [23]: 53.4 min |
| Nc1ccc2cc(CN3C(=O)c4cc(F)ccc4[C@]34CCN(Cc3ccc(F)cc3)C4=O)[nH]c2n1 | 2.5 | 12 µL/min/1e6 cells | 31 ×10⁻⁶ cm/s | 140 nM | IC50 (PRMT5/MEP50 complex [4]): 9 nM; Ratio IC50 (HCT-116): 31 |
| O=C1c2cc(F)ccc2[C@@]2(CCN(Cc3ccc(F)cc3)C2=O)N1Cc1cc2cccnc2[nH]1 | 3.4 | 188 µL/min/1e6 cells | – | – | – |
| O=C(NCc1ccc(F)cc1)C1c2ccccc2C(=O)N1Cc1cc2cccnc2[nH]1 (configuration not stated) | 3.3 | 131 µL/min/1e6 cells | 90 ×10⁻⁶ cm/s | – | – |
| N=C(N)Nc1nnc(CN2C(=O)c3ccccc3C2C(=O)NCc2ccc(F)cc2)s1 (configuration not stated) | 1.7 | 23 µL/min/1e6 cells | – | – | – |
| COc1cccc2c1C(=O)N(Cc1cnc(NC(=N)N)s1)C2C(=O)NCc1ccc(F)cc1 (configuration not stated) | 1.9 | 11 µL/min/1e6 cells | – | – | – |
| Cn1c(CN2C(=O)c3cc(F)ccc3[C@]23CCN(Cc2ccc(F)cc2)C3=O)cc2nc(N)ccc21 | 2.2 | 21 µL/min/1e6 cells | – | 4800 nM | solubility at 24 h (physchem [1]): 110 µM (≈ 53.6 µg/mL); Ratio IC50 (HCT-116): > 5 |
| Nc1ccc2ncc(CN3C(=O)c4cc(F)ccc4[C@]34CCN(Cc3ccc(F)cc3)C4=O)cc2n1 | 2.2 | 22 µL/min/1e6 cells | 27 ×10⁻⁶ cm/s | 240 nM | solubility at 24 h (physchem [1]): 55 µM (≈ 26.7 µg/mL); Ratio IC50 (HCT-116): 18 |
| N=C(N)Nc1ncc(CN2C(=O)c3ccccc3C2C(=O)N(Cc2ccc(F)cc2)C2CC2)s1 (configuration not stated) | 2.6 | 64 µL/min/1e6 cells | – | – | – |
| N=C(N)Nc1ncc(CN2C(=O)c3cc(F)ccc3C2C(=O)NCc2ccc(F)cc2)s1 (configuration not stated) | 2.5 | 13 µL/min/1e6 cells | – | – | – |
| O=C1c2cc(F)ccc2[C@]2(CCN(Cc3ccc(F)cc3)C2=O)N1Cc1cc2ncccc2[nH]1 | 3.1 | 246 µL/min/1e6 cells | – | – | – |
| Nc1ccc2oc(CN3C(=O)c4cc(F)ccc4[C@]34CCN(Cc3ccc(F)cc3)C4=O)cc2n1 | 2.3 | 59 µL/min/1e6 cells | 72 ×10⁻⁶ cm/s | – | solubility at 24 h (physchem [1]): 243 µM (≈ 115 µg/mL) |
| N=C(N)Nc1ncc(CN2C(=O)c3ccccc3C2C(=O)NCc2ccc(F)cc2)s1 (configuration not stated) | – | 34 µL/min/1e6 cells | – | – | Vdss [6]: 1.6 L/kg; bioavailability [7]: 2%; half-life [8]: 66 min; fraction unbound [25]: 0.19 |
| O=C(NCc1ccc(F)cc1)C1c2ccc(F)cc2C(=O)N1Cc1cc2cccnc2[nH]1 (configuration not stated) | 3.2 | 123 µL/min/1e6 cells | – | – | – |
| N#Cc1ccc2c(c1)C(C(=O)NCc1ccc(F)cc1)N(Cc1cnc(NC(=N)N)s1)C2=O (configuration not stated) | 2.1 | 13 µL/min/1e6 cells | – | – | – |
| O=C(NCc1ccc(F)cc1)C1c2ccc(F)cc2C(=O)N1Cc1cc2ncccc2[nH]1 (configuration not stated) | 3.4 | 112 µL/min/1e6 cells | – | – | – |
